{"source": "patent US10072005B2", "about": "“4-azaindole derivatives” (EISAI R&D MANAGEMENT CO., LTD., priority 2013, dated 2018)", "data": [{"target": "mAChR M1 (Homo sapiens, UniProt P11229)", "sequence (P11229 whole entry, looked up)": "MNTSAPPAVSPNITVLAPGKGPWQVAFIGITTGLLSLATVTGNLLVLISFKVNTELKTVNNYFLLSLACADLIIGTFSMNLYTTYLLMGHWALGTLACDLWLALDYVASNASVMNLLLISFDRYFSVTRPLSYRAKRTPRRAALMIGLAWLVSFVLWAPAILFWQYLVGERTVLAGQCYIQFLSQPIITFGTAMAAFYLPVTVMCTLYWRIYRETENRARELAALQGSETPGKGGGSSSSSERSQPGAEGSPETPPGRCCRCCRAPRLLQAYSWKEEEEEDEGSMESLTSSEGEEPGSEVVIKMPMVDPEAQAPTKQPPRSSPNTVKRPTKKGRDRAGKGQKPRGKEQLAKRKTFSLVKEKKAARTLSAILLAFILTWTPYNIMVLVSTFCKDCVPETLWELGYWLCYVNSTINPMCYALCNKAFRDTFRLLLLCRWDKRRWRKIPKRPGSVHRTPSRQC", "experiment": "In vitro cellular calcium flux assay, positive allosteric modulation of mAChR M1", "type": "cell-based", "conditions": "not given", "procedure": "(§1) Baby hamster kidney cells stably expressing human or rat mAChR M1 to M5 were utilised for primary and selectivity profiling activities. mAChR M2 and M4 cell lines also stably expressed the chimeric Gαqi5 G-protein.\n(§2) Human mAChR M1, M3, M5 and rat M1 cells were grown in low glucose Dulbecco's Modified Eagle's Medium (DMEM) medium plus heat inactivated 10% fetal bovine serum (HI FBS) and 500 μg/ml hygromycin B^1. Human mAChR M2 and M4 cells were maintained as above with^2 the addition of 500 μg/ml G418 to the media. Cells were maintained in culture at 37° C./5% CO2 and passaged twice weekly by treatment with 0.05% Trypsin/EDTA detachment solution, centrifugation (200 g, 5 min) and re-suspension in fresh media. Following cell expansion, cells were cryopreserved at −80° C. by treatment with 0.05% Trypsin/EDTA detachment solution, centrifugation (200 g, 5 min) and re-suspension of the pellet in freezing media (90% HI FBS/10% DMSO^3) at 15E6 cells/ml^4.\n(§3) Prior to assaying, cells were prepared by thawing at 37° C. in a water bath, centrifugation (200 g, 5 min) and re-suspension of the pellet in fresh media. 15000 cells per well were seeded in black, clear bottomed 384-well Greiner Bio-One plates in plating medium (DMEM/10% HI FBS) and incubated overnight at 37 C/5% CO2.\n(§4) On the day of the assay, media was removed from each well and replaced with 50 μl^5 assay buffer (HBSS with 20 mM HEPES and 2.5 mM Probenecid) containing the calcium indicator, Calcium 4 (Molecular Devices). Cells were then incubated at 37° C./5% CO2 for 30 min and at room temperature.\n(§5) Compound preparation was carried out by generation of 11-point, 1 in 3 serial dilution concentration response curves in 100% DMSO. Compound was then diluted 1 in 65^6 with assay buffer (HBSS with 20 mM HEPES and 2.5 mM Probenecid) prior to the addition of 10 ul^7 to the cells using a Tetra fluorometric imaging plate reader (Molecular Devices)^8. Compound driven increases in intracellular calcium flux was measured as an increase in fluorescence (494Ex, 516Em)^9.\n(§6) Positive allosteric modulator pEC50 values and antagonist pIC50 values for each compound were then determined. […] The points of modification and the alternate reagents, concentrations or equipment employed in these examples were: ^1200 μg/ml hygromycin B; ^2G418 not added; ^3CELLBANKER 1; ^410E6; ^5 40 μl; ^6 1 in 99; ^7 20 μl; ^8FDSS6000 (Hamamatsu Photonics); ^9(480Ex, 540Em); ^10Spotfire (TIBCO).", "units": {"EC50": "nM"}, "values": [{"smiles": "N#Cc1ccc(Cn2cc(C(=O)N[C@H]3CCCC[C@@H]3O)c3nccc(Cl)c32)cn1", "note": "[Example 70, 7-Chloro-1-((6-cyanopyridin-3-yl)methyl)-N-((1S,2S)-2-hydroxycyclohexyl)-1H-pyrrolo[3,2-b]pyridine-3-carboxamide]", "EC50": 100}]}, {"target": "mAChR M1 (Homo sapiens, UniProt P11229)", "experiment": "In vitro cellular calcium flux assay, positive allosteric modulation of mAChR M1", "type": "cell-based", "conditions": "BHK cells expressing mAChR M1; EC20 carbachol; Examples 76-80 and 82-89 slightly modified procedure", "procedure": "as §1, §2, §3, §4, §5, §6", "values": [{"smiles": "COc1cccc(Cn2cc(C(=O)N[C@H]3CCCC[C@@H]3O)c3ncccc32)c1F", "note": "[Example 102, 1-(2-fluoro-3-methoxybenzyl)-N-((1S,2S)-2-hydroxycyclohexyl)-1H-pyrrolo[3,2-b]pyridine-3-carboxamide]", "pEC50 for positive allosteric modulation": 6.4}, {"smiles": "O=C(NC1CCCCC1)c1cn(Cc2ccc(-n3cccn3)cc2)c2cccnc12", "note": "[Example 50, 1-(4-(1H-Pyrazol-1-yl)benzyl)-N-cyclohexyl-1H-pyrrolo[3,2-b]pyridine-3-carboxamide]", "pEC50 for positive allosteric modulation": 6.4}, {"smiles": "N#Cc1ccnc2c(C(=O)N[C@H]3CCCC[C@@H]3O)cn(Cc3ccc(F)cc3)c12", "note": "[Example 32, 7-Cyano-1-(4-fluorobenzyl)-N-((1S,2S)-2-hydroxycyclohexyl)-1H-pyrrolo[3,2-b]pyridine-3-carboxamide]", "pEC50 for positive allosteric modulation": 6.7}, {"smiles": "O=C(N[C@H]1CCCC[C@@H]1O)c1cn(Cc2ccc(OC(F)(F)F)cc2)c2cccnc12", "note": "[Example 9, N-((1S,2S)-2-Hydroxycyclohexyl)-1-(4-(trifluoromethoxy)benzyl)-1H-pyrrolo[3,2-b]pyridine-3-carboxamide]", "pEC50 for positive allosteric modulation": 6.6}, {"smiles": "Cc1ccnc2c(C(=O)N[C@H]3CCCC[C@@H]3O)cn(Cc3cnn(C)c3)c12", "note": "[Example 73, N-((1S,2S)-2-Hydroxycyclohexyl)-7-methyl-1-((1-methyl-1H-pyrazol-4-yl)methyl)-1H-pyrrolo[3,2-b]pyridine-3-carboxamide]", "pEC50 for positive allosteric modulation": 7.9}, {"smiles": "O=C(N[C@@H]1CCOC[C@H]1O)c1cn(Cc2ccc(F)cc2)c2c(Cl)ccnc12", "note": "[Example 89, 7-Chloro-1-(4-fluorobenzyl)-N-((3S,4R)-3-hydroxytetrahydro-2H-pyran-4-yl)-1H-pyrrolo[3,2-b]pyridine-3-carboxamide]", "pEC50 for positive allosteric modulation": 6.6}, {"smiles": "COc1cc(Cn2cc(C(=O)N[C@H]3CCCC[C@@H]3O)c3nccc(C)c32)ccn1", "note": "[Example 71, N-((1S,2S)-2-Hydroxycyclohexyl)-1-((2-methoxypyridin-4-yl)methyl)-7-methyl-1H-pyrrolo[3,2-b]pyridine-3-carboxamide]", "pEC50 for positive allosteric modulation": 7.9}, {"smiles": "CN1CCC[C@H](NC(=O)c2cn(Cc3ccc(-n4cccn4)cc3)c3cccnc23)C1", "note": "[Example 54, (S)-1-(4-(1H-Pyrazol-1-yl)benzyl)-N-(1-methylpiperidin-3-yl)-1H-pyrrolo[3,2-b]pyridine-3-carboxamide]", "pEC50 for positive allosteric modulation": 7.5}, {"smiles": "O=C(N[C@H]1CCCC[C@@H]1O)c1cn(Cc2cc(F)ccc2F)c2cccnc12", "note": "[Example 3, 1-(2,5-Difluorobenzyl)-N-((1S,2S)-2-hydroxycyclohexyl)-1H-pyrrolo[3,2-b]pyridine-3-carboxamide]", "pEC50 for positive allosteric modulation": 6.8}, {"smiles": "CN1CCC[C@@H](NC(=O)c2cn(Cc3ccc(-n4cccn4)cc3)c3cccnc23)C1", "note": "[Example 55, (R)-1-(4-(1H-Pyrazol-1-yl)benzyl)-N-(1-methylpiperidin-3-yl)-1H-pyrrolo[3,2-b]pyridine-3-carboxamide]", "pEC50 for positive allosteric modulation": 6.7}, {"smiles": "Cn1ccnc1-c1ccc(Cn2cc(C(=O)N[C@H]3CCCC[C@@H]3O)c3ncccc32)cc1", "note": "[Example 42, N-((1S,2S)-2-Hydroxycyclohexyl)-1-(4-(1-methyl-1H-imidazol-2-yl)benzyl)-1H-pyrrolo[3,2-b]pyridine-3-carboxamide]", "pEC50 for positive allosteric modulation": 7.0}, {"smiles": "Cc1csc(Cn2cc(C(=O)N[C@H]3CCCC[C@@H]3O)c3nccc(Cl)c32)n1", "note": "[Example 74, 7-Chloro-N-((1S,2S)-2-hydroxycyclohexyl)-1-((4-methylthiazol-2-yl)methyl)-1H-pyrrolo[3,2-b]pyridine-3-carboxamide]", "pEC50 for positive allosteric modulation": 6.7}, {"smiles": "Cc1cc(Cn2cc(C(=O)N[C@H]3CCCC[C@@H]3O)c3ncccc32)ccn1", "note": "[Example 76, N-((1S,2S)-2-Hydroxycyclohexyl)-1-((2-methylpyridin-4-yl)methyl)-1H-pyrrolo[3,2-b]pyridine-3-carboxamide]", "pEC50 for positive allosteric modulation": 6.4}, {"smiles": "COc1ccc(Cn2cc(C(=O)N[C@H]3CCCC[C@@H]3O)c3nccc(C)c32)cn1", "note": "[Example 67, N-((1S,2S)-2-Hydroxycyclohexyl)-1-((6-methoxypyridin-3-yl)methyl)-7-methyl-1H-pyrrolo[3,2-b]pyridine-3-carboxamide]", "pEC50 for positive allosteric modulation": 7.5}, {"smiles": "COc1ccc(Cn2cc(C(=O)N[C@H]3CCCC[C@@H]3O)c3nccc(Cl)c32)cc1", "note": "[Example 58, 7-Chloro-N-((1S,2S)-2-hydroxycyclohexyl)-1-(4-methoxybenzyl)-1H-pyrrolo[3,2-b]pyridine-3-carboxamide]", "pEC50 for positive allosteric modulation": 7.7}, {"smiles": "O=C(N[C@H]1CCCC[C@@H]1O)c1cn(Cc2ccc(F)cc2)c2ccc(Cl)nc12", "note": "[Example 39, 5-Chloro-1-(4-fluorobenzyl)-N-((1S,2S)-2-hydroxycyclohexyl)-1H-pyrrolo[3,2-b]pyridine-3-carboxamide]", "pEC50 for positive allosteric modulation": 6.0}, {"smiles": "Cc1ccc(Cn2cc(C(=O)N[C@H]3CCCC[C@@H]3O)c3ncccc32)nc1", "note": "[Example 26, N-((1S,2S)-2-Hydroxycyclohexyl)-1-((5-methylpyridin-2-yl)methyl)-1H-pyrrolo[3,2-b]pyridine-3-carboxamide]", "pEC50 for positive allosteric modulation": 6.1}, {"smiles": "Cc1cc(-c2ccc(Cn3cc(C(=O)N[C@H]4CCCC[C@@H]4O)c4ncccc43)c(F)c2)ccn1", "note": "[Example 45, 1-(2-Fluoro-4-(2-methylpyridin-4-yl)benzyl)-N-((1S,2S)-2-hydroxycyclohexyl)-1H-pyrrolo[3,2-b]pyridine-3-carboxamide]", "pEC50 for positive allosteric modulation": 7.5}, {"smiles": "O=C(N[C@H]1CCCC[C@@H]1O)c1cn(Cc2ccc(C(F)(F)F)cc2)c2cccnc12", "note": "[Example 90, N-((1S,2S)-2-hydroxycyclohexyl)-1-(4-(trifluoromethyl)benzyl)-1H-pyrrolo[3,2-b]pyridine-3-carboxamide]", "pEC50 for positive allosteric modulation": 6.6}, {"smiles": "O=C(N[C@H]1CCCC[C@@H]1O)c1cn(Cc2ccncc2)c2cccnc12", "note": "[Example 77, N-((1S,2S)-2-Hydroxycyclohexyl)-1-(pyridin-4-ylmethyl)-1H-pyrrolo[3,2-b]pyridine-3-carboxamide]", "pEC50 for positive allosteric modulation": 6.3}, {"smiles": "O=C(N[C@H]1CCCC[C@@H]1O)c1cn(Cc2ccncc2)c2c(Cl)ccnc12", "note": "[Example 79, 7-Chloro-N-((1S,2S)-2-hydroxycyclohexyl)-1-(pyridin-4-ylmethyl)-1H-pyrrolo[3,2-b]pyridine-3-carboxamide]", "pEC50 for positive allosteric modulation": 7.4}, {"smiles": "O=C(N[C@H]1CCCC[C@@H]1O)c1cn(Cc2ccc(OC(F)(F)F)cc2)c2c(Cl)ccnc12", "note": "[Example 99, 7-chloro-N-((1S,2S)-2-hydroxycyclohexyl)-1-(4-(trifluoromethoxy)benzyl)-1H-pyrrolo[3,2-b]pyridine-3-carboxamide]", "pEC50 for positive allosteric modulation": 6.7}, {"smiles": "Cc1ccnc2c(C(=O)N[C@H]3CCCC[C@@H]3O)cn(Cc3ccc(Cl)nc3)c12", "note": "[Example 59, 1-((6-Chloropyridin-3-yl)methyl)-N-((1S,2S)-2-hydroxycyclohexyl)-7-methyl-1H-pyrrolo[3,2-b]pyridine-3-carboxamide]", "pEC50 for positive allosteric modulation": 7.4}, {"smiles": "O=C(N[C@@H]1CCCNC1)c1cn(Cc2ccc(-n3cccn3)cc2)c2cccnc12", "note": "[Example 53, (R)-1-(4-(1H-Pyrazol-1-yl)benzyl)-N-(piperidin-3-yl)-1H-pyrrolo[3,2-b]pyridine-3-carboxamide]", "pEC50 for positive allosteric modulation": 6.2}]}, {"target": "mAChR M1 (Homo sapiens, UniProt P11229)", "experiment": "In vitro cellular calcium flux assay, positive allosteric modulation of mAChR M1", "type": "cell-based", "conditions": "BHK cells expressing mAChR M1; EC20 carbachol; Examples 76-80 and 82-89 slightly modified procedure; read-out: pEC50 for positive allosteric modulation (converted)", "procedure": "as §1, §2, §3, §4, §5, §6", "units": {"EC50": "nM"}, "values": [{"smiles": "N#Cc1ccc2c(n1)c(C(=O)N[C@H]1CCCC[C@@H]1O)cn2Cc1ccc(-n2cccn2)cc1", "note": "[Example 41, 1-(4-(1H-Pyrazol-1-yl)benzyl)-5-cyano-N-((1S,2S)-2-hydroxycyclohexyl)-1H-pyrrolo[3,2-b]pyridine-3-carboxamide]", "EC50": 316}]}]}
